Measured values: ChEMBL document CHEMBL1201861, “Genomics of Drug Sensitity in Cancer screening data, Wellcome Trust Sanger Institute”
pIC50: −log10 of the molar value.

Tests used:
Experiment in all cases: cells
D-336MG = type: functional, cell-based, Homo sapiens; conditions: Homo sapiens, D-336MG
Description: SANGER: Inhibition of human D-336MG cell growth in a cell viability assay.

EKVX = type: functional, cell-based, Homo sapiens; conditions: Homo sapiens, EKVX
Description: SANGER: Inhibition of human EKVX cell growth in a cell viability assay.

NCI-H2052 = type: functional, cell-based, Homo sapiens; conditions: Homo sapiens, NCI-H2052
Description: SANGER: Inhibition of human NCI-H2052 cell growth in a cell viability assay.

HSC-3 = type: functional, cell-based, Homo sapiens; conditions: Homo sapiens, HSC-3
Description: SANGER: Inhibition of human HSC-3 cell growth in a cell viability assay.

A-431 = type: functional, cell-based, Homo sapiens; conditions: Homo sapiens, A-431
Description: SANGER: Inhibition of human A431 cell growth in a cell viability assay.

MDA-MB-415 = type: functional, cell-based; conditions: Homo sapiens
HLE = type: functional, cell-based, Homo sapiens; conditions: Homo sapiens, HLE
Description: SANGER: Inhibition of human HLE cell growth in a cell viability assay.

LN-405 = type: functional, cell-based, Homo sapiens; conditions: Homo sapiens, LN-405
Description: SANGER: Inhibition of human LN-405 cell growth in a cell viability assay.

NCI-H226 = type: functional, cell-based, Homo sapiens; conditions: Homo sapiens, NCI-H226
Description: SANGER: Inhibition of human NCI-H226 cell growth in a cell viability assay.

NCI-H596 = type: functional, cell-based, Homo sapiens; conditions: Homo sapiens, NCI-H596
Description: SANGER: Inhibition of human NCI-H596 cell growth in a cell viability assay.

EW-1 = type: functional, cell-based, Homo sapiens; conditions: Homo sapiens, EW-1
Description: SANGER: Inhibition of human EW-1 cell growth in a cell viability assay.

8305C = type: functional, cell-based, Homo sapiens; conditions: Homo sapiens, 8305C
Description: SANGER: Inhibition of human 8305C cell growth in a cell viability assay.

CAL-27 = type: functional, cell-based, Homo sapiens; conditions: Homo sapiens, CAL-27
Description: SANGER: Inhibition of human CAL-27 cell growth in a cell viability assay.

D-392MG = type: functional, cell-based, Homo sapiens; conditions: Homo sapiens, D-392MG
MSTO-211H = type: functional, cell-based, Homo sapiens; conditions: Homo sapiens, MSTO-211H
Description: SANGER: Inhibition of human MSTO-211H cell growth in a cell viability assay.

SK-HEP1 = type: functional, cell-based, Homo sapiens, SK-HEP-1; conditions: Homo sapiens, SK-HEP1
Description: SANGER: Inhibition of human SK-HEP-1 cell growth in a cell viability assay.

SN12C = type: functional, cell-based, Homo sapiens; conditions: Homo sapiens, SN12C
Description: SANGER: Inhibition of human SN12C cell growth in a cell viability assay.

TGBC24TKB = type: functional, cell-based, Homo sapiens; conditions: Homo sapiens, TGBC24TKB
Description: SANGER: Inhibition of human TGBC24TKB cell growth in a cell viability assay.

HT-1376 = type: functional, cell-based, Homo sapiens; conditions: Homo sapiens, HT-1376
Description: SANGER: Inhibition of human HT-1376 cell growth in a cell viability assay.

SNB-75 = type: functional, cell-based, Homo sapiens; conditions: Homo sapiens, SNB-75
Description: SANGER: Inhibition of human SNB75 cell growth in a cell viability assay.

A498 = type: functional, cell-based, Homo sapiens; conditions: Homo sapiens, A498
Description: SANGER: Inhibition of human A498 cell growth in a cell viability assay.

COR-L105 = type: functional, cell-based, Homo sapiens; conditions: Homo sapiens, COR-L105
Description: SANGER: Inhibition of human COR-L105 cell growth in a cell viability assay.

RERF-LC-MS = type: functional, cell-based, Homo sapiens; conditions: Homo sapiens, RERF-LC-MS
Description: SANGER: Inhibition of human RERF-LC-MS cell growth in a cell viability assay.

NCI-H2030 = type: functional, cell-based, Homo sapiens; conditions: Homo sapiens, NCI-H2030
Description: SANGER: Inhibition of human NCI-H2030 cell growth in a cell viability assay.

SW1417 = type: functional, cell-based, Homo sapiens; conditions: Homo sapiens, SW1417
Description: SANGER: Inhibition of human SW1417 cell growth in a cell viability assay.

SW13 = type: functional, cell-based, Homo sapiens; conditions: Homo sapiens, SW13
Description: SANGER: Inhibition of human SW13 cell growth in a cell viability assay.

Mo = type: functional, cell-based; conditions: Homo sapiens
Description: SANGER: Inhibition of human Mo-T cell growth in a cell viability assay.

COLO-679 = type: functional, cell-based, Homo sapiens; conditions: Homo sapiens, COLO-679
Description: SANGER: Inhibition of human COLO-679 cell growth in a cell viability assay.

SW1088 = type: functional, cell-based, Homo sapiens; conditions: Homo sapiens, SW1088
Description: SANGER: Inhibition of human SW1088 cell growth in a cell viability assay.

Calu-3 = type: functional, cell-based, Homo sapiens; conditions: Homo sapiens, Calu-3
Description: SANGER: Inhibition of human Calu-3 cell growth in a cell viability assay.

BEN = type: functional, cell-based, Homo sapiens; conditions: Homo sapiens, BEN
Description: SANGER: Inhibition of human BEN cell growth in a cell viability assay.

TCC-SUP = type: functional, cell-based, Homo sapiens; conditions: Homo sapiens, TCC-SUP
Description: SANGER: Inhibition of human TCCSUP cell growth in a cell viability assay.

C-33-A = type: functional, cell-based, Homo sapiens; conditions: Homo sapiens, C-33-A
Description: SANGER: Inhibition of human C-33-A cell growth in a cell viability assay.

LU-99A = type: functional, cell-based, Homo sapiens; conditions: Homo sapiens, LU-99A
Description: SANGER: Inhibition of human LU-99A cell growth in a cell viability assay.

MDA-MB-361 = type: functional, cell-based, Homo sapiens; conditions: Homo sapiens, MDA-MB-361
CAL-54 = type: functional, cell-based, Homo sapiens; conditions: Homo sapiens, CAL-54
Description: SANGER: Inhibition of human CAL-54 cell growth in a cell viability assay.

DK-MG = type: functional, cell-based, Homo sapiens; conditions: Homo sapiens, DK-MG
Description: SANGER: Inhibition of human DK-MG cell growth in a cell viability assay.

no-10 = type: functional, cell-based, Homo sapiens; conditions: Homo sapiens
Description: SANGER: Inhibition of human no-10 cell growth in a cell viability assay.

Hs-578T = type: functional, cell-based, Homo sapiens; conditions: Homo sapiens, Hs-578T
Description: SANGER: Inhibition of human Hs-578-T cell growth in a cell viability assay.

A673 = type: functional, cell-based, Homo sapiens; conditions: Homo sapiens, A673
Description: SANGER: Inhibition of human A673 cell growth in a cell viability assay.

PANC-03-27 = type: functional, cell-based, Homo sapiens; conditions: Homo sapiens, PANC-03-27
Description: SANGER: Inhibition of human PANC-03-27 cell growth in a cell viability assay.

CAMA-1 = type: functional, cell-based, Homo sapiens; conditions: Homo sapiens, CAMA-1
Description: SANGER: Inhibition of human CAMA-1 cell growth in a cell viability assay.

SK-MEL3 = type: functional, cell-based, Homo sapiens, SK-MEL-3; conditions: Homo sapiens, SK-MEL3
Description: SANGER: Inhibition of human SK-MEL-3 cell growth in a cell viability assay.

C3A = type: functional, cell-based, Homo sapiens; conditions: Homo sapiens, C3A
Description: SANGER: Inhibition of human C3A cell growth in a cell viability assay.

QIMR-WIL = type: functional, cell-based; conditions: Homo sapiens
Description: SANGER: Inhibition of human QIMR-WIL cell growth in a cell viability assay.

PC-14 = type: functional, cell-based, Homo sapiens; conditions: Homo sapiens, PC-14
Description: SANGER: Inhibition of human PC-14 cell growth in a cell viability assay.

BT-474 = type: functional, cell-based, Homo sapiens; conditions: Homo sapiens, BT-474
Description: SANGER: Inhibition of human BT-474 cell growth in a cell viability assay.

## CC(=O)O[C@@H]1[C@@H](OC(C)=O)[C@@H](O)[C@H](Oc2c(-c3ccc(O)cc3)oc3cc(O)cc(O)c3c2=O)O[C@H]1C
D-336MG
  pIC50: < 5.00
EKVX
  pIC50: < 5.00
NCI-H2052
  pIC50: < 5.00
HSC-3
  pIC50: < 5.00
A-431
  pIC50: < 5.00
MDA-MB-415
  pIC50: < 5.00
HLE
  pIC50: < 5.00
LN-405
  pIC50: < 5.00
NCI-H226
  pIC50: < 5.00
NCI-H596
  pIC50: < 5.00
EW-1
  pIC50: < 5.00
8305C
  pIC50: < 5.00
CAL-27
  pIC50: < 5.00
D-392MG
  pIC50: < 5.00
MSTO-211H
  pIC50: < 5.00
SK-HEP1
  pIC50: < 5.00
SN12C
  pIC50: < 5.00
TGBC24TKB
  pIC50: < 5.00
HT-1376
  pIC50: < 5.00
SNB-75
  pIC50: < 5.00
A498
  pIC50: < 5.00
COR-L105
  pIC50: < 5.00
RERF-LC-MS
  pIC50: < 5.00
NCI-H2030
  pIC50: < 5.00
SW1417
  pIC50: < 5.00
SW13
  pIC50: < 5.00
Mo
  pIC50: < 5.00
COLO-679
  pIC50: < 5.00
SW1088
  pIC50: < 5.00
Calu-3
  pIC50: < 5.00
BEN
  pIC50: < 5.00
TCC-SUP
  pIC50: < 5.00
C-33-A
  pIC50: < 5.00
LU-99A
  pIC50: < 5.00
MDA-MB-361
  pIC50: < 5.00
CAL-54
  pIC50: < 5.00
DK-MG
  pIC50: < 5.00
no-10
  pIC50: < 5.00
Hs-578T
  pIC50: < 5.00
A673
  pIC50: < 5.00
PANC-03-27
  pIC50: < 5.00
CAMA-1
  pIC50: < 5.00
SK-MEL3
  pIC50: 5.11
C3A
  pIC50: < 5.00
QIMR-WIL
  pIC50: < 5.00
PC-14
  pIC50: < 5.00
BT-474
  pIC50: < 5.00
